One experiment relates to NIH 3T3 cells. Briefly: Cell proliferation assay in NIH 3T3 cells (direct cell counting). Type of experiment: cell-based, mouse. The note with it: NIH 3T3 fibroblasts, 3000 cells/well, incubated 4 days, viable cells directly counted, read-out: IC50 (half inhibitory concentration) against NIH 3T3. As for the experimental part: (§1) To further confirm the relationship between cell uptake and antitumor activity, the half inhibitory concentrations (IC50) of these compounds against the U87MG cell line were measured. […] It should be noted that all these five compounds show minimum or even un-observable toxicity in the fibroblast cell line NIH 3T3 (IC50 all >100 μM, Table 1, FIG. 6), highlighting the treatment specificity of these mitochondrial targeted agents.
(§2) Both U87MG and NIH 3T3 cell lines at a density of 3000 cells/well were incubated in 96-well plates overnight. The culture medium was replaced with 200 μL of culture medium in which the testing compound dispersed at various concentrations (0.5-200 μM). After incubation for 4 days, the viable cell numbers were checked and directly counted under microscopy (10×). A minimum of 1 mm×1 mm area was counted from each of at least three widely separated regions of cell culture. The cell proliferation rate was calculated by the following formula: cell proliferation rate (%)=(average cell number of sample wells/average cell number of control wells×100. The intact culture medium was evaluated as a control.

In experiment [1] the test system is U87MG cells. Briefly: Cell proliferation assay in U87MG cells (direct cell counting). In kind it is cell-based, human. Particulars: for IC50: 3000 cells/well, incubated 4 days, viable cells directly counted, read-out: IC50 (half inhibitory concentration) against U87MG. As for the experimental part: Apart from the imaging studies, we then investigated anti-tumor activities of all F16 related compounds by studying their antiproliferative effects in U87MG and MDA-MB-231 cell lines. After exposure to 5 or 10 μM of the compounds in the cancer cells for 4 days, the cell proliferative ratios to the control were measured (see FIG. 5). […] The different antiproliferative activities imply that the antitumor potency of the F16 related compounds is cell-dependent. Meanwhile, substituents in F16 and F16-TPP analogues played distinct roles, for instance, introduction of a fluorine atom in F16 barely influences activity of FF16 (P>0.05), while substitution of fluorine and methyl groups apparently impacts F16-TPP analogues in the U87MG cell line at a higher concentration of 10 μM.
as §1, §2

In experiment [2] the test system is U87MG cells. Briefly: Cell uptake and localization by fluorescence microscopy in U87MG cells. In kind it is cell-based, human. The note with it: 1 hour incubation, fluorescence signal in cells/PBS buffer, n=9. How it is done: The data was obtained by calculating by the following equation: Fluorescence signal in cell lines/Fluorescence signal in PBS buffer and normalized to F16 in the U87MG cell line. n=9. Data are presented as mean±SD.
Tumor cell uptake of all F16 related compounds were studied by incubating two cancer cell lines (U87MG and MDA-MB-231) with the probes for 1 hour and then imaging was performed with a fluorescent microscope. Meanwhile, to investigate the localization of the F16 derivatives, after incubation with the probes, cells were co-stained with the commercially available dye Mitotrack, which is widely used for mitochondria staining. […] Under eGFP filter set (ξex 450/490 nm, λem 515/565 nm), no significant autofluorescence of the cells were observed, making it convenient to study the relative uptake of the probes directly by comparing their fluorescence signals.
We then investigated the uptake of all the probes in U87MG and MDA-MB-231 cells at 1 hour incubation by quantitative analysis of fluorescent signals intensity of all F16 related compounds in the cells. The cellular uptake experiments were repeated nine times, and the relative cellular uptakes ability of different probes were calculated by comparing their percentage of cellular fluorescent signals and then normalized by that of F16 (FIG. 4). […]

Like-named read-outs stand apart in the source and are kept apart here.

Consider `C[n+]1ccc(/C=C/c2c[nH]c3ccccc23)cc1.[I-]` [F16, (E)-4-(1H-indol-3-ylvinyl)-N-methylpyridinium iodide, reference compound], for which the IC50 was roughly 100 µM with NIH 3T3 cells (Mus musculus, NIH3T3, 96 h) and 36.5 ± 1.1 µM with U87MG cells [1] (Homo sapiens, U-87 MG, 96 h). For the same compound, the “Relative uptake in U87MG cells, normalized to F16” value in the experiment with U87MG cells [2] was roughly 1.

With `C[n+]1ccc(/C=C/c2c[nH]c3ccc(F)cc23)cc1.[I-]` [FF16, (E)-4-(1H-5-fluro-indole-3-ylvinyl)-N-methylpyridinium iodide], the IC50 is roughly 491 µM with NIH 3T3 cells and 28 ± 1.2 µM in the experiment with U87MG cells [1]. The “Improvement of bioactivity relative to F16 (U87MG IC50)” value in the experiment on U87MG cells [1] (fluorine substitution in F16) is roughly 1.3 fold. Also, the “Relative uptake in U87MG cells, normalized to F16” value with U87MG cells [2] is roughly 1.

These data come from US20150336993A1, “MITOCHONDRIA-TARGETED THERANOSTIC AGENTS” (The Board of Trustees of the Leland Stanford Junior …, priority 2014, published 2015).
